Test results published in paper PMC8632988, “Inhibition of SYK and cSrc kinases can protect bone and cartilage in preclinical models of osteoarthritis and rheumatoid arthritis” (Scientific Reports, 2021).

How the values were obtained:
Experiment in all cases: Kinase selectivity profile assay
Type in all cases: biochemical
SNARK/NUAK2 = target: T1, SNARK/NUAK2 (Homo sapiens, UniProt Q9H093); settings: 500 nM; relative to DMSO; read-out: Residual enzymatic activity
T1 construct: purchased Reaction Biology Corporation
In short: (§1)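 Radiometric kinase assay run by a standard protocol. Unbound phosphate was removed by washing filters in phosphoric acid, and product radioactivity gave percent remaining kinase activity versus DMSO vehicle reactions. Run in duplicate.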

LATS1 = target: T2, LATS1 (Homo sapiens, UniProt O95835); settings: 500 nM; relative to DMSO; read-out: Residual enzymatic activity
T2 construct: purchased Reaction Biology Corporation
In short: as §1

CDK6/cyclin D1 = target: T3, CDK6/cyclin D1 (Homo sapiens, UniProt Q00534); settings: 500 nM; relative to DMSO; read-out: Residual enzymatic activity
T3 construct: purchased Reaction Biology Corporation
In short: as §1

LYN B = target: T4, LYN B (Homo sapiens, UniProt P07948); settings: 500 nM; relative to DMSO; read-out: Residual enzymatic activity
T4 construct: purchased Reaction Biology Corporation (assay service)
In short: as §1

CDK2/cyclin A = target: T5, CDK2/cyclin A (Homo sapiens, UniProt P24941); settings: 500 nM; relative to DMSO; read-out: Residual enzymatic activity
T5 construct: purchased Reaction Biology Corporation
In short: as §1

Aurora B = target: T6, Aurora B (Homo sapiens, UniProt Q96GD4); settings: 500 nM; relative to DMSO; read-out: Residual enzymatic activity
T6 construct: purchased Reaction Biology Corporation
In short: as §1

ERK1 = target: T7, ERK1 (Homo sapiens, UniProt P27361); settings: 500 nM; relative to DMSO; read-out: Residual enzymatic activity
T7 construct: purchased Reaction Biology Corporation
In short: as §1

P38d/MAPK13 = target: T8, P38d/MAPK13 (Homo sapiens, UniProt O15264); settings: 500 nM; relative to DMSO; read-out: Residual enzymatic activity
T8 construct: purchased Reaction Biology Corporation
In short: as §1

ABL1 = target: T9, ABL1 (Homo sapiens, UniProt P00519); settings: 500 nM; relative to DMSO; read-out: Residual enzymatic activity
T9 construct: purchased Reaction Biology Corporation
In short: as §1

TIE2/TEK = target: T10, TIE2/TEK (Homo sapiens, UniProt Q02763); settings: 500 nM; relative to DMSO; read-out: Residual enzymatic activity
T10 construct: purchased Reaction Biology Corporation
In short: as §1

NEK3 = target: T11, NEK3 (Homo sapiens, UniProt P51956); settings: 500 nM; relative to DMSO; read-out: Residual enzymatic activity
T11 construct: purchased Reaction Biology Corporation
In short: as §1

CDK4/cyclin D3 = target: T12, CDK4/cyclin D3 (Homo sapiens, UniProt P11802); settings: 500 nM; relative to DMSO; read-out: Residual enzymatic activity
T12 construct: purchased Reaction Biology Corporation
In short: as §1

CDK4/cyclin D1 = target: T13, CDK4/cyclin D1 (Homo sapiens, UniProt P11802); settings: read-out: Residual enzymatic activity
T13 construct: purchased Reaction Biology Corporation
In short: as §1

CAMK2b = target: T14, CAMK2b (Homo sapiens, UniProt Q13554); settings: 500 nM; relative to DMSO; read-out: Residual enzymatic activity
T14 construct: purchased Reaction Biology Corporation
In short: as §1

DDR1 = target: T15, DDR1 (Homo sapiens, UniProt Q08345); settings: 500 nM; relative to DMSO; read-out: Residual enzymatic activity
T15 construct: purchased Reaction Biology Corporation (assay service)
In short: as §1

MSSK1/STK23 = target: T16, MSSK1/STK23 (Homo sapiens, UniProt Q9UPE1); settings: 500 nM; relative to DMSO; read-out: Residual enzymatic activity
T16 construct: purchased Reaction Biology Corporation
In short: as §1

NEK4 = target: T17, NEK4 (Homo sapiens, UniProt P51957); settings: 500 nM; relative to DMSO; read-out: Residual enzymatic activity
T17 construct: purchased Reaction Biology Corporation
In short: as §1

AKT2 = target: T18, AKT2 (Homo sapiens, UniProt P31751); settings: 500 nM; relative to DMSO; read-out: Residual enzymatic activity
T18 construct: purchased Reaction Biology Corporation
In short: as §1

DYRK1B = target: T19, DYRK1B (Homo sapiens, UniProt Q9Y463); settings: 500 nM; relative to DMSO; read-out: Residual enzymatic activity
T19 construct: purchased Reaction Biology Corporation
In short: as §1

PKCb1 = target: T20, PKCb1 (Homo sapiens, UniProt P05771); settings: 500 nM; relative to DMSO; read-out: Residual enzymatic activity
T20 construct: purchased Reaction Biology Corporation
In short: as §1

ROCK1 = target: T21, ROCK1 (Homo sapiens, UniProt Q13464); settings: 500 nM; relative to DMSO; read-out: Residual enzymatic activity
T21 construct: purchased Reaction Biology Corporation
In short: as §1

TAOK3/JIK = target: T22, TAOK3/JIK (Homo sapiens, UniProt Q9H2K8); settings: 500 nM; relative to DMSO; read-out: Residual enzymatic activity
T22 construct: purchased Reaction Biology Corporation
In short: as §1

CLK1 = target: T23, CLK1 (Homo sapiens, UniProt P49759); settings: 500 nM; relative to DMSO; read-out: Residual enzymatic activity
T23 construct: purchased Reaction Biology Corporation
In short: as §1

LKB1 = target: T24, LKB1 (Homo sapiens, UniProt Q15831); settings: 500 nM; relative to DMSO; read-out: Residual enzymatic activity
T24 construct: purchased Reaction Biology Corporation
In short: as §1

MEKK3 = target: T25, MEKK3 (Homo sapiens, UniProt Q99759); settings: 500 nM; relative to DMSO; read-out: Residual enzymatic activity
T25 construct: purchased Reaction Biology Corporation
In short: as §1

CDK1/cyclin E = target: T26, CDK1/cyclin E (Homo sapiens, UniProt P06493); settings: 500 nM; relative to DMSO; read-out: Residual enzymatic activity
T26 construct: purchased Reaction Biology Corporation
In short: as §1

WNK1 = target: T27, WNK1 (Homo sapiens, UniProt Q9H4A3); settings: 500 nM; relative to DMSO; read-out: Residual enzymatic activity
T27 construct: purchased Reaction Biology Corporation
In short: as §1

JNK3 = target: T28, JNK3 (Homo sapiens, UniProt P53779); settings: 500 nM; relative to DMSO; read-out: Residual enzymatic activity
T28 construct: purchased Reaction Biology Corporation
In short: as §1

RIPK5 = target: T29, RIPK5 (Homo sapiens, UniProt Q6XUX3); settings: 500 nM; relative to DMSO; read-out: Residual enzymatic activity
T29 construct: purchased Reaction Biology Corporation
In short: as §1

ALK6/BMPR1B = target: T30, ALK6/BMPR1B (Homo sapiens, UniProt O00238); settings: 500 nM; relative to DMSO; read-out: Residual enzymatic activity
T30 construct: purchased Reaction Biology Corporation
In short: as §1

RON/MST1R = target: T31, RON/MST1R (Homo sapiens, UniProt Q04912); settings: 500 nM; relative to DMSO; read-out: Residual enzymatic activity
T31 construct: purchased Reaction Biology Corporation
In short: as §1

FLT1/VEGFR1 = target: T32, FLT1/VEGFR1 (Homo sapiens, UniProt P17948); settings: 500 nM; relative to DMSO; read-out: Residual enzymatic activity
T32 construct: purchased Reaction Biology Corporation
In short: as §1

WEE1 = target: T33, WEE1 (Homo sapiens, UniProt P30291); settings: 500 nM; relative to DMSO; read-out: Residual enzymatic activity
T33 construct: purchased Reaction Biology Corporation
In short: as §1

EPHB2 = target: T34, EPHB2 (Homo sapiens, UniProt P29323); settings: 500 nM; relative to DMSO; read-out: Residual enzymatic activity
T34 construct: purchased Reaction Biology Corporation
In short: as §1

MLCK/MYLK = target: T35, MLCK/MYLK (Homo sapiens, UniProt Q15746); settings: 500 nM; relative to DMSO; read-out: Residual enzymatic activity
T35 construct: purchased Reaction Biology Corporation
In short: as §1

MRCKb/CDC42BPB = target: T36, MRCKb/CDC42BPB (Homo sapiens, UniProt Q9Y5S2); settings: read-out: Residual enzymatic activity
T36 construct: purchased Reaction Biology Corporation
In short: as §1

FGFR1 = target: T37, FGFR1 (Homo sapiens, UniProt P11362); settings: 500 nM; relative to DMSO; read-out: Residual enzymatic activity
T37 construct: purchased Reaction Biology Corporation
In short: as §1

OSR1/OXSR1 = target: T38, OSR1/OXSR1 (Homo sapiens, UniProt O95747); settings: 500 nM; relative to DMSO; read-out: Residual enzymatic activity
T38 construct: purchased Reaction Biology Corporation
In short: as §1

HPK1/MAP4K1 = target: T39, HPK1/MAP4K1 (Homo sapiens, UniProt Q92918); settings: 500 nM; relative to DMSO; read-out: Residual enzymatic activity
T39 construct: purchased Reaction Biology Corporation
In short: as §1

T21 sequence (Q13464 whole entry): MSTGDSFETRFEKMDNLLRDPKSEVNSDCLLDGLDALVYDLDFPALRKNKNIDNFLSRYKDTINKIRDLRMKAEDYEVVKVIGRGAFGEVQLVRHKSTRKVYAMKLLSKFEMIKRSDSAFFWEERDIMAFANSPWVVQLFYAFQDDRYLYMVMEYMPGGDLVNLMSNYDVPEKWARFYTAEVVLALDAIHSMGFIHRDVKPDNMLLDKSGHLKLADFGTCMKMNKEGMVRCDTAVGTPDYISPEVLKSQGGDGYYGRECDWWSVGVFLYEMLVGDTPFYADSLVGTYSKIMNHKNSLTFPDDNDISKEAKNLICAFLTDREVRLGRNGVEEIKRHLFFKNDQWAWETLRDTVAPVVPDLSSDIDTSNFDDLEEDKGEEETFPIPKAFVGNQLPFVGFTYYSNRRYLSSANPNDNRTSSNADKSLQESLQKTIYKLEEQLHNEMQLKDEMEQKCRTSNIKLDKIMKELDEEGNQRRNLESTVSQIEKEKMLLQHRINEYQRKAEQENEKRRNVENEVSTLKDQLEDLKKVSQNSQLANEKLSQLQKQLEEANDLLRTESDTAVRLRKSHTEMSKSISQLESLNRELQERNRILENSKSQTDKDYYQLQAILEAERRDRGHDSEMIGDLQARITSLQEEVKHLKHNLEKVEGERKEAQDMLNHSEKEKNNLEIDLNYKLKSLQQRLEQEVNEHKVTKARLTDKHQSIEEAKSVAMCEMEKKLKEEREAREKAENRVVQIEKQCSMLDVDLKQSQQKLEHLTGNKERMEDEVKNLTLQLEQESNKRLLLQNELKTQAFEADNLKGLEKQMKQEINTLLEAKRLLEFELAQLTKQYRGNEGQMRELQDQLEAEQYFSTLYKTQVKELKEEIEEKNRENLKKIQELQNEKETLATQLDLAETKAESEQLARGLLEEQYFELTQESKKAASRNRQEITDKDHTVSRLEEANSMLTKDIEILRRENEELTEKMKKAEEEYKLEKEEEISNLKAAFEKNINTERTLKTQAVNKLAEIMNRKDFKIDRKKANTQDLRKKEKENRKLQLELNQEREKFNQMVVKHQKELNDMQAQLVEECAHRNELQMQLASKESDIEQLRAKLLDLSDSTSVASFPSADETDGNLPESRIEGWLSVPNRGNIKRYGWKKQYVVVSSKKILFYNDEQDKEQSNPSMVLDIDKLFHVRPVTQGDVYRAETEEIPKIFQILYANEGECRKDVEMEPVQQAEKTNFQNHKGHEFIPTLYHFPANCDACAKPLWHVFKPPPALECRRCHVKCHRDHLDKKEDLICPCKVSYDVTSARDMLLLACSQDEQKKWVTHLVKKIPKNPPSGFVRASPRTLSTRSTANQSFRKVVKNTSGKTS
T26 sequence (P06493 whole entry): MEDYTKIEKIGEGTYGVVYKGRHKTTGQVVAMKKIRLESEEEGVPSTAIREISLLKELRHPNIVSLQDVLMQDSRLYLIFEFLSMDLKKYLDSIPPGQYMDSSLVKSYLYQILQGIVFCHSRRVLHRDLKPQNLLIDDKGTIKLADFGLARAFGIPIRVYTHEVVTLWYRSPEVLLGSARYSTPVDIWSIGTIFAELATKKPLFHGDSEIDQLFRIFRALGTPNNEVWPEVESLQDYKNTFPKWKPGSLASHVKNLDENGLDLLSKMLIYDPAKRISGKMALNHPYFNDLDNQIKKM
T26 sequence (P24864 whole entry partner): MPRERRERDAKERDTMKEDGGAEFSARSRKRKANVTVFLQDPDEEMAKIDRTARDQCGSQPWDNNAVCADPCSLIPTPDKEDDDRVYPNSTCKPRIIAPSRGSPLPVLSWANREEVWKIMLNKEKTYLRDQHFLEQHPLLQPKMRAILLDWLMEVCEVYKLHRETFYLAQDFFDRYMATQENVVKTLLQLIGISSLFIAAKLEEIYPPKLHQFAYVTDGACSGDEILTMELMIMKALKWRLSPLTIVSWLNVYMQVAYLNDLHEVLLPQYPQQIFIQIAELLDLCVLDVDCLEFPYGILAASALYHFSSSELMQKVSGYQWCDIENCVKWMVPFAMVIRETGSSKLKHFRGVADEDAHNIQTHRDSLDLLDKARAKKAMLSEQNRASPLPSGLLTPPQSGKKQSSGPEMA
T27 sequence (Q9H4A3 whole entry): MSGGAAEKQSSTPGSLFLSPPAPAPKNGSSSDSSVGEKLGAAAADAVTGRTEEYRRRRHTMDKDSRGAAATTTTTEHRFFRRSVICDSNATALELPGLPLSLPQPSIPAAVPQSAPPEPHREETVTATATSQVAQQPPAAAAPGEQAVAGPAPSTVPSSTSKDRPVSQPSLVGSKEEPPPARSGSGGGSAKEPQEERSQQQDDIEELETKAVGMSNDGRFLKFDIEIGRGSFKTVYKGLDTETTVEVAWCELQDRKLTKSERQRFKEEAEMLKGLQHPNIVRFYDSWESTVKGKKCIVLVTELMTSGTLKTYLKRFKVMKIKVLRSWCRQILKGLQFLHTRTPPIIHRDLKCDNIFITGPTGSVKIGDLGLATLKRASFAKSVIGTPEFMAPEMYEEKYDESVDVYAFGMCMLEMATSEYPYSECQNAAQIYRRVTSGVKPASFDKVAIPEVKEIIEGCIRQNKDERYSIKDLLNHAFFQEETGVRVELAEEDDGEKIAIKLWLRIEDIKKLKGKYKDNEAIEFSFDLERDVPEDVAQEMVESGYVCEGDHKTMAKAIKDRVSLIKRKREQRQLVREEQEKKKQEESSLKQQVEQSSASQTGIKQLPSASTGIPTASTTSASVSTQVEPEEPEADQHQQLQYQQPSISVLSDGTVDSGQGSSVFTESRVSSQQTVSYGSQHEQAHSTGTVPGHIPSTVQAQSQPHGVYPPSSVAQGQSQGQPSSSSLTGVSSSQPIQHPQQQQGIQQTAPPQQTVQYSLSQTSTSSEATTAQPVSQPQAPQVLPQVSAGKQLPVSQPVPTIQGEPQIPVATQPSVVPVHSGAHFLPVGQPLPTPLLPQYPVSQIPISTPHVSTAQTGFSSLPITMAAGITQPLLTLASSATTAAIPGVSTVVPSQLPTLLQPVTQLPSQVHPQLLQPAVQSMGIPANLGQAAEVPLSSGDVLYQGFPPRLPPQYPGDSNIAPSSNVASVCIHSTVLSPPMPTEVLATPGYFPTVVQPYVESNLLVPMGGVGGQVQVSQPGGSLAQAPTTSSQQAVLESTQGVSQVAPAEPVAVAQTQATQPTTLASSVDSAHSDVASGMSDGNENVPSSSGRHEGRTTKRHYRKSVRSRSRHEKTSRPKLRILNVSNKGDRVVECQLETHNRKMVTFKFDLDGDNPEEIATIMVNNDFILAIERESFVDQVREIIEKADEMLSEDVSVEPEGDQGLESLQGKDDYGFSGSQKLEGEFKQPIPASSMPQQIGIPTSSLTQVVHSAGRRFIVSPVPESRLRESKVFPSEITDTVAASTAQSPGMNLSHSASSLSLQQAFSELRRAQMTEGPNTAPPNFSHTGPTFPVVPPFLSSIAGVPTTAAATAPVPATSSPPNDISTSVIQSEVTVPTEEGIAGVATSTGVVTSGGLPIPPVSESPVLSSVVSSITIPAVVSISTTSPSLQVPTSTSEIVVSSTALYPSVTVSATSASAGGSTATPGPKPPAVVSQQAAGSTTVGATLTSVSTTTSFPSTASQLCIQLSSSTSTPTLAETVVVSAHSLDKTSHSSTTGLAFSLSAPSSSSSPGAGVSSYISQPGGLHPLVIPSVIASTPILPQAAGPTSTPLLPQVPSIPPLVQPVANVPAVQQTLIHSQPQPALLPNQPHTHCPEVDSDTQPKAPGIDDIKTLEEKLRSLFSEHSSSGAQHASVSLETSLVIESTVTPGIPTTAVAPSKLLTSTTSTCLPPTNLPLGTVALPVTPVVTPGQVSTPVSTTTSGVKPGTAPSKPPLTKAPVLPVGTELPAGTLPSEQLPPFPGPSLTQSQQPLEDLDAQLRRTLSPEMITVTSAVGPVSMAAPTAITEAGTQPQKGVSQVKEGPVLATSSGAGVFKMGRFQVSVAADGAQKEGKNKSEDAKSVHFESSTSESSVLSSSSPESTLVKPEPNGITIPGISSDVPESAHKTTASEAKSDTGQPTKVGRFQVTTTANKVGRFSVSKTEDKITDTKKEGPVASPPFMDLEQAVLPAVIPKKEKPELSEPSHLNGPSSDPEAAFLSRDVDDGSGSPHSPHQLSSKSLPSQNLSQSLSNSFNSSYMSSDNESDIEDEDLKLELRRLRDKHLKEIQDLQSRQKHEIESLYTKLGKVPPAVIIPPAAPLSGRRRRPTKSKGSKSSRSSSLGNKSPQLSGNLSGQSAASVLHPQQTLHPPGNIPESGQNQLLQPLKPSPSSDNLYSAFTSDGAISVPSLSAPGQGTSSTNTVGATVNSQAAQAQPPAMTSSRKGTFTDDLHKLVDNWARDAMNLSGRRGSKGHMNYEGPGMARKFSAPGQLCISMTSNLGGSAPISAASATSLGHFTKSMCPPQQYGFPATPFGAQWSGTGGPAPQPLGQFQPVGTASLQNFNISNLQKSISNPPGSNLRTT
T20 sequence (P05771 whole entry): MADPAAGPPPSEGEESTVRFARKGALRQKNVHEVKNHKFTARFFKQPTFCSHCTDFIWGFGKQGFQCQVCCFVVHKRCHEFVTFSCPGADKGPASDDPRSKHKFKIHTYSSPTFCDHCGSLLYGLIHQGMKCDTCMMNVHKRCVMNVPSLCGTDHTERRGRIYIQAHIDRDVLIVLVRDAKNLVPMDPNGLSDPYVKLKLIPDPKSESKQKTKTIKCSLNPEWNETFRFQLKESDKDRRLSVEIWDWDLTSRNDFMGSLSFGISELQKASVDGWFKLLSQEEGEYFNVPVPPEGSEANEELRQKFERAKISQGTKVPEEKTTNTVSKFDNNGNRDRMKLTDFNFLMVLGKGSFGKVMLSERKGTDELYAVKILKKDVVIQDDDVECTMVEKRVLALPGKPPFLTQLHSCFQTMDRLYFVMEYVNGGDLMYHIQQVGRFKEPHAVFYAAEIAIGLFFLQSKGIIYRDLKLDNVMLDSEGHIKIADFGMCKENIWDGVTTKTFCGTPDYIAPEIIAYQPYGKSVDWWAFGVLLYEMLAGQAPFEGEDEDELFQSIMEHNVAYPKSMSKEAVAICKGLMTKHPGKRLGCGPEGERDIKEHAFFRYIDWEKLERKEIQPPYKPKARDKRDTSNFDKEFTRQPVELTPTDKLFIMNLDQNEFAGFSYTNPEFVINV

For `COc1cc(Nc2ncc(F)c(Nc3ccc4c(n3)NC(=O)C(C)(C)O4)n2)cc(OC)c1OC` [R406, reference compound], the remaining activity at 0.5 µM (SNARK/NUAK2) was 59.7%, the remaining activity at 0.5 µM (LATS1) was 79.6% and the remaining activity at 0.5 µM (CDK6/cyclin D1) was 93.4%. For the same compound, the remaining activity at 0.5 µM (LYN B) was 14.5%, the remaining activity at 0.5 µM (CDK2/cyclin A) was 47.6% and the remaining activity at 0.5 µM (Aurora B) was 40.2%. It also gave a remaining activity at 0.5 µM (ERK1) of 97.4%, a remaining activity at 0.5 µM (P38d/MAPK13) of 84.7% and a remaining activity at 0.5 µM (ABL1) of 68.6%. It also gave a remaining activity at 0.5 µM (TIE2/TEK) of 69.9%, a remaining activity at 0.5 µM (NEK3) of 19.2% and a remaining activity at 0.5 µM (CDK4/cyclin D3) of 99.6%. The remaining activity at 0.5 µM (CDK4/cyclin D1) was 104%, the remaining activity at 0.5 µM (CAMK2b) was 95.8% and the remaining activity at 0.5 µM (DDR1) was 1%. It also gave a remaining activity at 0.5 µM (MSSK1/STK23) of 107%, a remaining activity at 0.5 µM (NEK4) of 52.1% and a remaining activity at 0.5 µM (AKT2) of 110%. For the same compound, the remaining activity at 0.5 µM (DYRK1B) was 72.5%, the remaining activity at 0.5 µM (PKCb1) was 63% and the remaining activity at 0.5 µM (ROCK1) was 87%. For the same compound, the remaining activity at 0.5 µM (TAOK3/JIK) was 77.2%, the remaining activity at 0.5 µM (CLK1) was 61.7% and the remaining activity at 0.5 µM (LKB1) was 69.3%. The remaining activity at 0.5 µM (MEKK3) was 76.1%, the remaining activity at 0.5 µM (CDK1/cyclin E) was 76.5% and the remaining activity at 0.5 µM (WNK1) was 103%. The remaining activity at 0.5 µM (JNK3) was 114%, the remaining activity at 0.5 µM (RIPK5) was 100% and the remaining activity at 0.5 µM (ALK6/BMPR1B) was 145%. The remaining activity at 0.5 µM (RON/MST1R) was 47.9%, the remaining activity at 0.5 µM (FLT1/VEGFR1) was 12.4% and the remaining activity at 0.5 µM (WEE1) was 105%. For the same compound, the remaining activity at 0.5 µM (EPHB2) was 69.5%, the remaining activity at 0.5 µM (MLCK/MYLK) was 90.5% and the remaining activity at 0.5 µM (MRCKb/CDC42BPB) was 105%. It also gave a remaining activity at 0.5 µM (FGFR1) of 29%, a remaining activity at 0.5 µM (OSR1/OXSR1) of 97.2% and a remaining activity at 0.5 µM (HPK1/MAP4K1) of 98.8%.
